# Article PMC4110071, “DevR (DosR) mimetic peptides impair transcriptional regulation and survival of Mycobacterium tuberculosis under hypoxia by inhibiting the autokinase activity of DevS sensor kinase” (BMC Microbiology, 2014)
# Like-named read-outs stand apart in the source and are kept apart here.
# Experiments:
# [1] = test system: DevS201 (cytoplasmic domain of DevS sensor kinase); test: DevS201 autokinase (autophosphorylation) assay, high-throughput filtration format; format: biochemical, Mycobacterium tuberculosis; details: for inhibition of DevS autokinase activity (in words): Pep peptides at 3 mM and 5 mM, preincubated with DevS201 (15 μM) 30 mins at 25°C, three independent experiments, poor reproducibility due to protein aggregation; for % Inhibition of autokinase activity: mean of three independent experiments, 0 = lack of inhibition
# [2] = test system: Rv3134c promoter (DevR-dependent); format: cell-based, Mycobacterium tuberculosis; details: for % Inhibition of reporter activity, Rv3134c promoter: hypoxic, mean of two independent experiments; for inhibition of Rv3134c promoter activity: peptides at 2.5 and 5 mM, two independent experiments
# [3] = test system: sigA promoter (not regulated by DevR); format: cell-based, Mycobacterium tuberculosis; details: for % Inhibition of reporter activity, sigA promoter: peptide 5 mM, 0 = no detectable inhibition
# M. tuberculosis = format: cell-based, Mycobacterium tuberculosis; details: aerobic cultures; with respect to the DMSO control; two independent experiments
# M. tb H37Rv = test: REMA, aerobic Resazurin reduction assay; format: cell-based, Mycobacterium tuberculosis; details: 64 h at 37°C, Resazurin fluorescence, two independent experiments
# [4] = test system: DevS ~ P to DevR phosphotransfer; test: In vitro phosphotransfer assay from DevS~P to DevR; format: biochemical, Mycobacterium tuberculosis; details: data not shown
# Description: To study the phosphotransfer reaction, DevS201 (15 μM final concentration) was phosphorylated for 60 mins as described above. Subsequently, full-length DevR or DevRN protein (1–144 amino acid residues, 20 μM final concentration) was added to the phosphorylated DevS201 mix, and the reaction was incubated at 25°C for 2 mins. The reaction was terminated with 10 μl of 2X stop buffer (100 mM Tris-Cl, pH 6.8, 20% glycerol, 2% SDS, 280 mM β-mercaptoethanol, 0.01% bromophenol blue) and the samples were resolved on SDS-PAGE. The gel was rinsed in water and subjected to autoradiography.
# [5] = test system: CHO (Chinese hamster ovary cells); format: cell-based; details: MTT, 5 mM and 2.5 mM peptide, 48 h, relative to the DMSO vehicle control, duplicate values
# Description: (§1) Figure 6 Cytotoxicity of peptides. Percentage cytotoxicity due to exposure to peptides was assessed in HepG2 and CHO cell lines using the MTT assay. The cells were exposed to DevRS A-ext and DevRS D peptides at 2.5 mM and 5 mM concentration in 96-well plate format for 48 h. Percentage cytotoxicity is shown with respect to the DMSO control as mean ± SD for duplicate values.
# (§2) The cytotoxicity of DevRS1 peptide was assessed in CHO (Chinese hamster ovary cells) and HepG2 (human liver hepatocellular carcinoma) cell lines. Both the cell lines were maintained in DMEM supplemented with 10% FBS at 37°C in 5% CO2. Approximately, 10^4 cells were seeded per well in a 96-well plate and incubated at 37 °C for 12–16 h. The peptides were diluted in 125 μl DMEM and added onto cells (final volume 250 μl per well, 2.5 and 5 mM final peptide concentrations), and the plate was incubated at 37°C in 5% CO2 for 48 h. Subsequently, 20 μl of MTT (Sigma 5 μg μl^-1) was added and incubated for 4–5 h at 37°C. Following incubation, media was discarded and the formazan crystals were solubilized by adding 200 μl DMSO and the absorbance measured at A560 nm. The percentage toxicity was calculated as: […]
# [6] = test system: HepG2 (human liver hepatocellular carcinoma); format: cell-based; details: HepG2 cells; MTT; 5 mM and 2.5 mM peptide; 48 h; relative to the DMSO vehicle control; duplicate values
# Description: as §1, §2
substance,measurement,setting,value
HNTRGEE [Pep A],inhibition of DevS autokinase activity (in words),[1]; then ATP 1 h,inhibit DevS autokinase activity to varying degrees
ITNPDPY [Pep D],inhibition of DevS autokinase activity (in words),[1]; then ATP 1 h,inhibit DevS autokinase activity to varying degrees
"KDIKGME [DevRS A, DevR mimetic peptide KDIKGME]","% Inhibition of reporter activity, Rv3134c promoter",[2]; peptide 2.5 mM,30%
same,"% Inhibition of reporter activity, Rv3134c promoter",[2]; peptide 5 mM,~ 45%
same,"% Inhibition of reporter activity, sigA promoter",[3]; aerobic,6%
same,"% Inhibition of reporter activity, sigA promoter",[3]; hypoxic,~ 14%
SLFRDWP [Pep C],% Inhibition of autokinase activity,[1]; Pep peptide 5 mM,0%
same,inhibition of DevS autokinase activity (in words),[1]; then ATP 1 h,did not inhibit autokinase activity at any of the concentrations tested
same,% Inhibition of autokinase activity,[1]; peptide 3 mM,0%
TFESYSL [Pep B],inhibition of DevS autokinase activity (in words),[1]; then ATP 1 h,inhibit DevS autokinase activity to varying degrees
"VRLPD [DevRS D, DevR mimetic peptide VRLPD]",inhibition of DevS autokinase activity,"[1]; DevRS peptide 5 mM, preincubated with DevS201 30 mins at 25°C, then ATP 1 h, mean of two independent experiments",37%
same,inhibition of Rv3134c promoter activity,[2]; […],20-30%
same,inhibition of Rv3134c promoter activity,[2]; hypoxic conditions,~40%
same,inhibition of sigA promoter activity (in words),[3],did not inhibit sigA promoter activity
same,CFU: % Inhibition of Viability,M. tuberculosis,≤ 10%
same,"inhibition of viability, REMA",M. tb H37Rv,≤ 15%
same,inhibition of phosphosignal transfer from DevS ~ P to DevR (in words),[4],neither DevRS A-ext nor DevRS D inhibited this reaction
same,Percentage cytotoxicity,[5],20-40%
same,Percentage cytotoxicity,[6],20-40%
